Here are results for one compound from patent US20130052172A1, “METHODS FOR DIAGNOSING AND TREATING CARDIAC DEFECTS” (priority 2011, published 2013).

For one data set, the system named is intestinal microbiota. The data set can be described thus: Fecal microbiota abundance by 16S/18S rRNA quantitative PCR. The class given is in vivo, rat. Here is the method:
In the following example, methods for quantifying microbiota abundance in rat feces are described. Fresh fecal pellets were obtained from each rat prior to (day 0) and at day 6 to 7 post treatment. Pellets were homogenized in 1 ml PBS. 200 μl of homogenate was used for microbial DNA isolation using a QIAamp DNA Stool Mini Kit (Qiagen, Valencia, Calif.). Isolated DNA samples were subjected to quantitative PCR using an iCycler (Bio-Rad, Hercules, Calif.) for microbial population enumeration. PCR reaction mixture consisted of 50% iQ SYBR Green Supermix (Bio-Rad), 0.4 μM forward and reverse primers, and 3.8% template solution in RNase/DNase free water. Primer sets specific for 16s and 18s rRNA genes of particular microbial phylum, class, genus, and species (M. smithii and L. plantarum) along with 20 reaction temperature and reference strains are detailed in FIG. 2 and Table 1.

In another data set the test system is leptin. The data set can be described thus: Plasma cytokine analysis (leptin). The class given is in vivo, rat. The following applies: vancomycin in drinking water, d 6 vs d 0. Here is the method:
The concentration of cytokines in blood of rats treated with vancomycin was quantified to identify antibiotic-induced changes. […] Blood samples were kept on ice for 30 min and then centrifuged at 1000 g for 10 min at 4° C. to obtain plasma. Plasma samples were then analyzed to determine the concentration of 23 cytokines (Eve Technologies, Calgary, AB, Canada). Antibiotic was administered continuously via drinking water as described in example 1.

The next data set relates to isolated hearts. Kind of data set: In vitro global ischemia/reperfusion of isolated perfused hearts, infarct size and recovery of LVDP. On the set-up: species or system rat. Here is the method: For in vitro ischemia/reperfusion studies, hearts were perfused retrogradely, as described previously in Baker, J. et al. (Am. J. Physiol. Heart Circ. Physiol., 2000), the entirety of which is incorporated herein by reference. Briefly, hearts were perfused with modified Krebs-Henseleit buffer (120 mM NaCl, 25 mM NaHCO3, 4.7 mM KCl, 1.2 mM KH2PO4, 1.20 mM MgSO4, 11 mM glucose, and 1.8 mM CaCl2) bubbled with 95% O2-5% CO2 for a 40-minute stabilization period and subjected to 25 minutes of global no-flow ischemia, followed by 180 minutes of reperfusion. Before use, all perfusion fluids were filtered through cellulose acetate membranes with a pore size of 5.0 μm to remove particulate matter. Hearts were kept in temperature-controlled chambers to maintain myocardial temperature at 37° C. A balloon connected to a pressure transducer was inserted into the left ventricle to monitor cardiac function. For some experiments, hearts were stabilized for 25 minutes and then perfused with vancomycin or a mixture of antibiotics for 15 minutes before ischemia/reperfusion. During the initial 40 minute reperfusion period, recovery of mechanical function was measured as left ventricular developed pressure (LVDP) under steady-state conditions and expressed as a percentage of preischemic LVDP. At the end of the 3 hour reperfusion period, hearts were processed and stained with 2,3,5-triphenyltetrazolium chloride dye for IS determination.

In the next data set the test system is Dahl S rats. The data set can be described thus: In vivo regional myocardial ischemia/reperfusion, infarct size (IS/AAR). The arrangement: species or system rat. From the text:
An anesthetized rat model was used for in vivo ischemia/reperfusion studies using the general surgical protocol and determination of infarct size (IS) described in “K(ATP) opener-induced delayed cardioprotection: involvement of sarcolemmal and mitochondrial K(ATP) channels, free radicals and MEK½” (Gross, E. et al., J. Mol. Cell. Cardiol. 35, 985-992, 2003), the entirety of which is incorporated herein by reference. Briefly, following anesthesia, a tracheotomy for artificial ventilation was performed, with the left common carotid artery cannulated for blood pressure and heart rate measurements. A thoracotomy was performed at the fifth intercostal space, the pericardium was excised, and a silk ligature was placed distal to the left atrial appendage that spanned to the sternal portion of the left ventricle, which included the left anterior descending coronary artery. Occlusion of the area described [area at risk (AAR)] was created by placing ends of the ligature through a polypropylene tube and fixing the snare to the epicardial surface with a hemostat. After 30 min, the hemostat was released to reperfuse the AAR. Following 2 h of reperfusion, the ligature was again occluded, and the AAR was determined by patent-blue negative staining. The heart was then excised, cross-sectioned into 4 to 5 slices, and separated into normal zone and AAR. Pieces were incubated in 1% 2,3,5-triphenyltetrazolium chloride to determine IS. The heart was then incubated overnight in 10% formaldehyde, and infarcted tissue was dissected from the AAR. IS was expressed as a percentage of the AAR (IS/AAR). Leptin (0.12 μg/kg) was administered intravenously as a bolus at 24 and 12 h before ischemia. Amino acids were administered intravenously as a bolus at 24 and 12 hours before ischemia or dissolved in the drinking water and given 48 hours before ischemia.

Data set [1] in a line: Blood levels of orally administered antibiotics. The class given is in vivo, rat. Conditions: antibiotic given in drinking water; detection limit of assay 1 μM. From the text: Dahl S rats are an established model of increased susceptibility to injury from myocardial ischemia/reperfusion (Baker, J. et al. “Resistance to myocardial ischemia in five rat strains: is there a genetic component of cardioprotection?” Am. J. Physiol. Heart Circ. Physiol. 278, H1395-H1400, 2000, Shi, Y. et al. “Increased resistance to myocardial ischemia in the Brown Norway vs. Dahl S rat: role of nitric oxide synthase and Hsp90.” J. Mol. Cell. Cardiol. 38(4):625-635, 2005). […] A minimum treatment time of 48 h with vancomycin was needed to decrease IS. A return to control values for myocardial IS at 72 h following discontinuation of vancomycin was observed (FIG. 5). To determine whether this decrease in IS was a direct effect of antibiotic present in the coronary vasculature, blood levels of vancomycin were measured. The concentration of vancomycin in blood was below detection limits of the assay used (1 μM). […]
Infarct size was measured in rats treated with the antibiotic mixture using the method described in example 3. […] To determine whether the decrease in infarct size was a direct effect of antibiotics present in the coronary vasculature, blood levels of streptomycin, neomycin, bacitracin and polymyxin B were measured. […]

“And” between values parts separate entries of the source, which are not always exact repeats. Equal values may be shown once. “Also recorded” adds a separate entry of the source.

Regarding `CN[C@H](CC(C)C)C(=O)N[C@H]1C(=O)N[C@@H](CC(N)=O)C(=O)N[C@H]2C(=O)N[C@H]3C(=O)N[C@H](C(=O)N[C@H](C(=O)O)c4cc(O)cc(O)c4-c4cc3ccc4O)[C@H](O)c3ccc(c(Cl)c3)Oc3cc2cc(c3O[C@@H]2O[C@H](CO)[C@@H](O)[C@H](O)[C@H]2O[C@H]2C[C@](C)(N)[C@H](O)[C@H](C)O2)Oc2ccc(cc2Cl)[C@H]1O` [vancomycin, Vancomycin], the “total bacterial/microbial numbers in feces” value in the data set on intestinal microbiota (oral antibiotic in drinking water, Dahl S rats) is “reduced total bacterial numbers; also recorded: reduced total microbial numbers; also recorded: reduce overall bacterial numbers”. In addition, in the data set with intestinal microbiota (oral antibiotic treatment), the “change of Bacilli abundance in feces” value was “increased two fold”, the “change of Lactobacillales abundance in feces” value was “increase abundance”, the “change of Proteobacteria abundance in feces” value is given as “increase abundance” and the “increase of Proteobacteria in feces” value turned out to be 120 fold. Further, in the data set on leptin, the “decrease in circulating leptin” value is 38±4% and 38%. Also, the “effect on IS when added directly to coronary perfusate” value in the data set on isolated hearts (1 μM in perfusate, in vitro ischemia/reperfusion) is on record as “no reduction in IS; also recorded: no effect on severity of myocardial infarction; also recorded: did not reduce IS in vitro”. For the same compound, the “effect on infarct size of isolated hearts” value with isolated hearts (antibiotic added to the drinking water, then excluded from coronary circulation) is given as “reduced IS”. Further, the “decrease in IS” value in the data set on isolated hearts (antibiotic in drinking water, then excluded from coronary perfusate, in vitro ischemia/reperfusion) is 29%. For the same compound, in the data set with isolated hearts (vancomycin in drinking water), the “time after treatment ceased at which cardioprotection was lost” value was found to be 3 days and the “time of treatment within which cardioprotection was established” value is no more than 2 days. Also, the “reduction in myocardial IS” value in the data set with Dahl S rats (Dahl S rats, antibiotic in drinking water 7 d, in vivo regional ischemia/reperfusion) was roughly 27%. Besides, the “effect on infarct size in vivo” value in the data set with Dahl S rats (antibiotic added to the drinking water) is recorded as “reduced infarct size (IS) in vivo”. Besides, in the data set on Dahl S rats (vancomycin 15 mg/kg/day for 72 hours, thrombopoietin i.v. 15 minutes prior to ischemia), the “decrease in infarct size” value was found to be 28%. In data set [1], the concentration in blood was less than 1000 nM.
